Tests used:
HT1080 cells [1] = assay: DNA (pCMV-SPORT-βgal) transfection into HT1080 cells: β-gal activity; format: cell-based
Source text: (§1) The procedure of Test Example 5 was repeated, except that HeLa cells were replaced with HT1080 cells.
(§2) The procedure of Test Example 7 was repeated, except that HeLa cells were replaced with HT1080 cells.

HeLa cells [2] = assay: Viable cell counting (WST-1), cell survival rate, HeLa cells; format: cell-based
Procedure: (§3) Viable cell counting was carried out by means of a Cell Counting Kit (product of Dojindo Laboratories) based on WST-1 assay. […] Thereafter, absorbance was measured at 450 nm. A cell count vs. A450 standard curve was prepared on the basis of a separately prepared dilution series of different numbers of inoculated cells, and the number of viable cells was estimated by use of the standard curve.

HT1080 cells [3] = assay: Viable cell counting (WST-1), cell survival rate, HT1080 cells; format: cell-based
Procedure: as §3, §1, §2

HeLa cells [4] = assay: Cytotoxicity score under microscope after DNA transfection, HeLa cells; format: cell-based
Procedure: (§4) HeLa cells were inoculated into a 96-well plate (7,500 cells/100 μL/well), followed by culturing for about 24 hours. DNA (pCMV-SPORT-βgal) was diluted with a DMEM medium, to thereby prepare a DNA-diluted solution having a DNA concentration of 8 μg/mL (for the case of 200 ng/well). […] The thus-obtained solution or Lipofectamine 2000 as a positive control (product of Invitrogen) was diluted with a DMEM medium so that the amount of the reconstituted liposome solution or Lipofectamine 2000 added to cells was “Amount of liposomes added (μL/well)” shown in Table 9 or 10. Immediately after dilution, the DNA-diluted solution (25 μL) was added to and mixed with the liposome-diluted solution (25 μL), and the mixture was allowed to stand still at room temperature for 30 minutes, to thereby form a DNA/liposome complex. The DNA/liposome complex (50 μL) was added to the inoculated HeLa cells (about 70 to about 90% confluent), to thereby initiate transfection. After culturing at 37° C. and 5% CO2 for one hour, a 10% FBS/DMEM medium (100 μL) was added to the culture liquid, followed by culturing at 37° C. and 5% CO2 for about 21 hours.
(§5) Each of the enhancers shown in Table 13 was diluted with a DMEM medium to different concentrations so that the amount of the enhancer finally added to cells was “Enhancer amount (μg/well)” shown in Table 13. […] The thus-diluted liposome solution was added to an equiamount of the above-diluted enhancer, followed by incubation at room temperature for 20 minutes. […] Subsequently, cytotoxicity was evaluated according to the aforementioned scores, and determination of β-gal activity, quantitative determination of protein, and viable cell counting were carried out.

HT1080 cells [5] = assay: Cytotoxicity score under microscope after DNA transfection, HT1080 cells; format: cell-based; parameters: scale not given here
Source text: as §1, §2

HeLa cells [6] = assay: DNA (pCMV-SPORT-βgal) transfection into HeLa cells: β-gal activity; conditions: for β-gal activity: HeLa; for effect of enhancer on nucleic-acid-transfecting performance and cytotoxicity, in words: enhancer added to liposome solution of Formulation Example 4, summary of Tables 13 and 14 (HeLa and HT1080)
Procedure: as §4
The culture supernatant was removed, and the cells were washed with PBS(−). Thereafter, determination of β-galactosidase (hereinafter may be abbreviated as “β-gal”) activity, quantitative determination of protein, and viable cell counting were carried out as described below.
After complete removal of PBS through suction, a lysis buffer (30 μL) was added to the cells, and the mixture was stirred and then allowed to stand still at −80° C. for 30 minutes or longer for freezing. After rapid thawing in a water bath at 37° C., the mixture was again allowed to stand still at −80° C. for 30 minutes or longer for freezing, followed by rapid thawing in a water bath at 37° C. Thereafter, centrifugation was carried out (2,000 g×10 minutes), and the resultant supernatant (sample) (10 μL) was added to a 96-well microplate.
Determination of β-gal activity was carried out by means of a β-gal assay kit (product of Invitrogen). […] A 2-Me-containing cleavage buffer was added (50 μL/well) to the sample or each of the standard-diluted solutions (10 μL), and 4 mg/mL aqueous ONPG solution was added (17 μL/well), followed by incubation at 37° C. for 30 minutes. After completion of incubation, a stop buffer was added (120 μL/well) for termination of reaction, and absorbance was measured at 405 nm.
as §5

[7] = Formulation Example 4 0.38 μL/well, enhancer 2.5 μg/well
[8] = Formulation Example 4 0.38 μL/well, enhancer 5 μg/well
[9] = Formulation Example 4 0.38 μL/well, enhancer 10 μg/well
[10] = Formulation Example 4 0.38 μL/well, enhancer 20 μg/well
[11] = Formulation Example 4 0.38 μL/well, enhancer 40 μg/well
[12] = Formulation Example 4 0.38 μL/well, enhancer 0.625 μg/well
[13] = Formulation Example 4 0.38 μL/well, enhancer 1.25 μg/well
[14] = Formulation Example 4 0.75 μL/well, enhancer 0.625 μg/well
[15] = Formulation Example 4 0.75 μL/well, enhancer 1.25 μg/well
[16] = Formulation Example 4 0.75 μL/well, enhancer 2.5 μg/well
[17] = Formulation Example 4 0.75 μL/well, enhancer 5 μg/well
[18] = Formulation Example 4 0.75 μL/well, enhancer 10 μg/well

Compound: CCCC(=O)[O-].[Na+] [sodium butyrate]
- β-gal activity (HT1080 cells [1]; [7]): 45.0 mU/well
- β-gal activity (HT1080 cells [1]; [8]): 40.2 mU/well
- β-gal activity (HT1080 cells [1]; [9]): 37.3 mU/well
- β-gal activity (HT1080 cells [1]; [10]): 40.3 mU/well
- β-gal activity (HT1080 cells [1]; [11]): 45.6 mU/well
- Cell survival rate (HeLa cells [2]; [7]): 67%
- Cell survival rate (HeLa cells [2]; [8]): 73%
- Cell survival rate (HeLa cells [2]; [9]): 65%
- Cell survival rate (HeLa cells [2]; [10]): 66%
- Cell survival rate (HeLa cells [2]; [11]): 68%
- Cell survival rate (HT1080 cells [3]; [7]): 55%
- Cell survival rate (HT1080 cells [3]; [8]): 50%
- Cell survival rate (HT1080 cells [3]; [9]): 53%
- Cell survival rate (HT1080 cells [3]; [10]): 52%
- Cell survival rate (HT1080 cells [3]; [11]): 62%
- Cytotoxicity score (HeLa cells [4]; [7]): 1.5
- Cytotoxicity score (HeLa cells [4]; [8]): 1.0
- Cytotoxicity score (HeLa cells [4]; [9]): 1.0
- Cytotoxicity score (HeLa cells [4]; [10]): 1.5
- Cytotoxicity score (HeLa cells [4]; [11]): 2.0
- Cytotoxicity score (HT1080 cells [5]; [7]): 1.5
- Cytotoxicity score (HT1080 cells [5]; [8]): 1.5
- Cytotoxicity score (HT1080 cells [5]; [9]): 2.0
- Cytotoxicity score (HT1080 cells [5]; [10]): 2.5
- Cytotoxicity score (HT1080 cells [5]; [11]): 3.0
- β-gal activity (HeLa cells [6]; [7]): 20.4 mU/well
- β-gal activity (HeLa cells [6]; [8]): 19.8 mU/well
- β-gal activity (HeLa cells [6]; [9]): 18.7 mU/well
- β-gal activity (HeLa cells [6]; [10]): 20.9 mU/well
- β-gal activity (HeLa cells [6]; [11]): 26.7 mU/well
- effect of enhancer on nucleic-acid-transfecting performance and cytotoxicity, in words (HeLa cells [6]): excellent effects

Compound: poly L-lysine
- β-gal activity (HT1080 cells [1]; [12]): 76.7 mU/well
- β-gal activity (HT1080 cells [1]; [13]): 49.5 mU/well
- β-gal activity (HT1080 cells [1]; [7]): 25.7 mU/well
- β-gal activity (HT1080 cells [1]; [8]): 12.2 mU/well
- β-gal activity (HT1080 cells [1]; [9]): 8.8 mU/well
- β-gal activity (HT1080 cells [1]; [14]): 98.0 mU/well
- β-gal activity (HT1080 cells [1]; [15]): 93.8 mU/well
- β-gal activity (HT1080 cells [1]; [16]): 59.2 mU/well
- β-gal activity (HT1080 cells [1]; [17]): 42.7 mU/well
- β-gal activity (HT1080 cells [1]; [18]): 25.3 mU/well
- Cell survival rate (HeLa cells [2]; [12]): 62%
- Cell survival rate (HeLa cells [2]; [13]): 71%
- Cell survival rate (HeLa cells [2]; [7]): 70%
- Cell survival rate (HeLa cells [2]; [8]): 70%
- Cell survival rate (HeLa cells [2]; [9]): 76%
- Cell survival rate (HeLa cells [2]; [14]): 73%
- Cell survival rate (HeLa cells [2]; [15]): 94%
- Cell survival rate (HeLa cells [2]; [16]): 99%
- Cell survival rate (HeLa cells [2]; [17]): 97%
- Cell survival rate (HeLa cells [2]; [18]): 99%
- Cell survival rate (HT1080 cells [3]; [12]): 53%
- Cell survival rate (HT1080 cells [3]; [13]): 72%
- Cell survival rate (HT1080 cells [3]; [7]): 78%
- Cell survival rate (HT1080 cells [3]; [8]): 65%
- Cell survival rate (HT1080 cells [3]; [9]): 80%
- Cell survival rate (HT1080 cells [3]; [14]): 62%
- Cell survival rate (HT1080 cells [3]; [15]): 75%
- Cell survival rate (HT1080 cells [3]; [16]): 82%
- Cell survival rate (HT1080 cells [3]; [17]): 86%
- Cell survival rate (HT1080 cells [3]; [18]): 82%
- Cytotoxicity score (HeLa cells [4]; [12]): 0.5
- Cytotoxicity score (HeLa cells [4]; [13]): 0.0
- Cytotoxicity score (HeLa cells [4]; [7]): 0.0
- Cytotoxicity score (HeLa cells [4]; [8]): 0.5
- Cytotoxicity score (HeLa cells [4]; [9]): 0.5
- Cytotoxicity score (HeLa cells [4]; [14]): 1.0
- Cytotoxicity score (HeLa cells [4]; [15]): 0.5
- Cytotoxicity score (HeLa cells [4]; [16]): 0.0
- Cytotoxicity score (HeLa cells [4]; [17]): 0.0
- Cytotoxicity score (HeLa cells [4]; [18]): 0.5
- Cytotoxicity score (HT1080 cells [5]; [12]): 2.0
- Cytotoxicity score (HT1080 cells [5]; [13]): 2.0
- Cytotoxicity score (HT1080 cells [5]; [7]): 1.0
- Cytotoxicity score (HT1080 cells [5]; [8]): 0.5
- Cytotoxicity score (HT1080 cells [5]; [9]): 1.0
- Cytotoxicity score (HT1080 cells [5]; [14]): 2.5
- Cytotoxicity score (HT1080 cells [5]; [15]): 2.0
- Cytotoxicity score (HT1080 cells [5]; [16]): 1.5
- Cytotoxicity score (HT1080 cells [5]; [17]): 0.5
- Cytotoxicity score (HT1080 cells [5]; [18]): 1.0
- β-gal activity (HeLa cells [6]; [12]): 23.9 mU/well
- β-gal activity (HeLa cells [6]; [13]): 3.4 mU/well
- β-gal activity (HeLa cells [6]; [7]): 0.6 mU/well
- β-gal activity (HeLa cells [6]; [8]): 0.6 mU/well
- β-gal activity (HeLa cells [6]; [9]): 0.1 mU/well
- β-gal activity (HeLa cells [6]; [14]): 54.1 mU/well
- β-gal activity (HeLa cells [6]; [15]): 6.6 mU/well
- β-gal activity (HeLa cells [6]; [16]): 1.5 mU/well
- β-gal activity (HeLa cells [6]; [17]): 0.7 mU/well
- β-gal activity (HeLa cells [6]; [18]): 0.2 mU/well

Compound: protamine
- β-gal activity (HT1080 cells [1]; [12]): 79.3 mU/well
- β-gal activity (HT1080 cells [1]; [13]): 61.5 mU/well
- β-gal activity (HT1080 cells [1]; [7]): 23.1 mU/well
- β-gal activity (HT1080 cells [1]; [8]): 4.1 mU/well
- β-gal activity (HT1080 cells [1]; [9]): 2.7 mU/well
- β-gal activity (HT1080 cells [1]; [14]): 103.9 mU/well
- β-gal activity (HT1080 cells [1]; [15]): 103.9 mU/well
- β-gal activity (HT1080 cells [1]; [16]): 49.8 mU/well
- β-gal activity (HT1080 cells [1]; [17]): 19.5 mU/well
- β-gal activity (HT1080 cells [1]; [18]): 15.1 mU/well
- Cytotoxicity score (HeLa cells [4]; [12]): 1.5
- Cytotoxicity score (HeLa cells [4]; [13]): 0.5
- Cytotoxicity score (HeLa cells [4]; [7]): 0.5
- Cytotoxicity score (HeLa cells [4]; [8]): 0.5
- Cytotoxicity score (HeLa cells [4]; [9]): 0.5
- Cytotoxicity score (HeLa cells [4]; [14]): 3.0
- Cytotoxicity score (HeLa cells [4]; [15]): 1.0
- Cytotoxicity score (HeLa cells [4]; [16]): 0.5
- Cytotoxicity score (HeLa cells [4]; [17]): 0.5
- Cytotoxicity score (HeLa cells [4]; [18]): 0.5
- Cytotoxicity score (HT1080 cells [5]; [12]): 1.5
- Cytotoxicity score (HT1080 cells [5]; [13]): 1.5
- Cytotoxicity score (HT1080 cells [5]; [7]): 1.0
- Cytotoxicity score (HT1080 cells [5]; [8]): 0.5
- Cytotoxicity score (HT1080 cells [5]; [9]): 0.5
- Cytotoxicity score (HT1080 cells [5]; [14]): 2.5
- Cytotoxicity score (HT1080 cells [5]; [15]): 2.0
- Cytotoxicity score (HT1080 cells [5]; [16]): 2.0
- Cytotoxicity score (HT1080 cells [5]; [17]): 2.0
- Cytotoxicity score (HT1080 cells [5]; [18]): 1.0
- β-gal activity (HeLa cells [6]; [12]): 30.4 mU/well
- β-gal activity (HeLa cells [6]; [13]): 9.8 mU/well
- β-gal activity (HeLa cells [6]; [7]): 4.8 mU/well
- β-gal activity (HeLa cells [6]; [8]): 0.9 mU/well
- β-gal activity (HeLa cells [6]; [9]): 0.1 mU/well
- β-gal activity (HeLa cells [6]; [14]): 46.2 mU/well
- β-gal activity (HeLa cells [6]; [15]): 26.3 mU/well
- β-gal activity (HeLa cells [6]; [16]): 10.1 mU/well
- β-gal activity (HeLa cells [6]; [17]): 3.1 mU/well
- β-gal activity (HeLa cells [6]; [18]): 0.5 mU/well
- effect of enhancer on nucleic-acid-transfecting performance and cytotoxicity, in words (HeLa cells [6]): excellent effects
